Data as given in patent US20050282743A1, “Molecular interactions in cells” (Arbor Vita Corporation, priority 2001, published 2005).
Ends that are not written are not given here. Peptide text beside a SMILES is read from it. * marks the point of attachment. Biotin = O=C1N[C@H]2[C@H](CS[C@H]2CCCCC(=O)*)N1

Tests used:
Assay in all cases: G' assay (10 uM PL peptide), results of TABLE 7 and TABLE 12
Format in all cases: binding
[1] = molecular target: T1, PDZ protein (GST-PDZ fusion) (Homo sapiens, UniProt Q12923)
T1 construct: made in house; host or cells: E. coli (DH5alpha, BL21 or JM109)
T1 sequence (Q12923 whole entry, the tested form may be a part): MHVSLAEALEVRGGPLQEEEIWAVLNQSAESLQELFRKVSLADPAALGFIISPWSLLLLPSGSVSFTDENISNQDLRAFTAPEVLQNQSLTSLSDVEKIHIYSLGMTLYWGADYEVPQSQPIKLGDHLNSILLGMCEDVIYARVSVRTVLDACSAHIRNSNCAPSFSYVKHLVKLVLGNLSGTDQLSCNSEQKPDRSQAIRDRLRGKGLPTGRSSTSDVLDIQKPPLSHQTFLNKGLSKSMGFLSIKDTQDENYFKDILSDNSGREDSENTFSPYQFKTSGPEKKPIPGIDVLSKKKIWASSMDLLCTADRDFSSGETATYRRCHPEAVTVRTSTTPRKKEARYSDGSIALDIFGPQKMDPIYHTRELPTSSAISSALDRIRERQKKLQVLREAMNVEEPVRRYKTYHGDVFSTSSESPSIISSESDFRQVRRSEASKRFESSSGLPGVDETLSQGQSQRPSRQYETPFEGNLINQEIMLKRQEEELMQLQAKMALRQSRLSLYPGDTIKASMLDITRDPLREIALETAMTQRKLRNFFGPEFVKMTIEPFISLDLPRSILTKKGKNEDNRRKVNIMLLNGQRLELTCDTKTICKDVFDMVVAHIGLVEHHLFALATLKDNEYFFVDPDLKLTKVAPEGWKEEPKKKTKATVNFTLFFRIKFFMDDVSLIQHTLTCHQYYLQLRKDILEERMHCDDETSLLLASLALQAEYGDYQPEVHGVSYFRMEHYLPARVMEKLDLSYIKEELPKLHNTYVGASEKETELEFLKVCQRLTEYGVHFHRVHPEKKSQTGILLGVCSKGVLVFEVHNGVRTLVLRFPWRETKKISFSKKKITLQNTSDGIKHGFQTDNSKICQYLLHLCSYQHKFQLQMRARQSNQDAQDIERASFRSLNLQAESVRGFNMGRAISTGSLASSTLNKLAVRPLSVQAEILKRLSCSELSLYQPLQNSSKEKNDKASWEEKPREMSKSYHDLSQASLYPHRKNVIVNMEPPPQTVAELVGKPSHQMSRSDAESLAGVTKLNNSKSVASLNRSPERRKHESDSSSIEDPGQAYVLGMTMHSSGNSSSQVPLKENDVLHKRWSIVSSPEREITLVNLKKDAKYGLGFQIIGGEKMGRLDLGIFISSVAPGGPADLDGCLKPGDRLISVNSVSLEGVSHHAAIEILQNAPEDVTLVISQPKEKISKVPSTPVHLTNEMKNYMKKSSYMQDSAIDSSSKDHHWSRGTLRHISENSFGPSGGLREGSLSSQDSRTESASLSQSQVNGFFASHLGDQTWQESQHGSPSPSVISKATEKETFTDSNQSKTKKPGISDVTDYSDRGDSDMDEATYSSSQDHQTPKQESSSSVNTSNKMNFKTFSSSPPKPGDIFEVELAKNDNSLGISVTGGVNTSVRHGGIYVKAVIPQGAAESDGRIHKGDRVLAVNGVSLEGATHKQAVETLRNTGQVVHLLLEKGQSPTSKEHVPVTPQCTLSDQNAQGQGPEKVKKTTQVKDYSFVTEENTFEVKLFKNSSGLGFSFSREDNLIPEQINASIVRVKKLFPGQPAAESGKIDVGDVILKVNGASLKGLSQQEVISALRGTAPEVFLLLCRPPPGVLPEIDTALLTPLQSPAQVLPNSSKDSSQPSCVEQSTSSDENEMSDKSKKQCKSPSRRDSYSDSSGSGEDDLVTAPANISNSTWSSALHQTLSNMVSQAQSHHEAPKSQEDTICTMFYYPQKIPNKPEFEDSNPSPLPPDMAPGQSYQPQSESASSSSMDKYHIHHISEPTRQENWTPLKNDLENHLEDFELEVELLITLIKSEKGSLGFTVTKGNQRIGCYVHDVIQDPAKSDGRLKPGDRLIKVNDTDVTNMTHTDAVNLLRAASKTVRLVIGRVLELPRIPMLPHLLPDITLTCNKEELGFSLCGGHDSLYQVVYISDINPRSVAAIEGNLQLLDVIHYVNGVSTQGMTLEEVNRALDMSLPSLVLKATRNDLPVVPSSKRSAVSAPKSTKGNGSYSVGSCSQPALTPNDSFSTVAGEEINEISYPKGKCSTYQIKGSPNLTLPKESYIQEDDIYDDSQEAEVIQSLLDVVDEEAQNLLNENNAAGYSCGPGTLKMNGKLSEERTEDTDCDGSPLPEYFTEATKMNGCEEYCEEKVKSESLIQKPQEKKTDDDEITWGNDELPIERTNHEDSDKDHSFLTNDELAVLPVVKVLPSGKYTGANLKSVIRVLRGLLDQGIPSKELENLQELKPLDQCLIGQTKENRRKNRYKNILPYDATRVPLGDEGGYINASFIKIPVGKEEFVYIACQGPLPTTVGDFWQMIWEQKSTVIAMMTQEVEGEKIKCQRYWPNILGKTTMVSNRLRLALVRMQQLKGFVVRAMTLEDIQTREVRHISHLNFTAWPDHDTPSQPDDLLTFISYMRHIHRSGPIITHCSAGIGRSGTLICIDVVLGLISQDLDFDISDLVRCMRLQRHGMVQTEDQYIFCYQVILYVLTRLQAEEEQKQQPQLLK
In short: (§1)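 Same steps as the G-zero format, apart from a peptide concentration of 10 uM in place of 20 uM in step 2. Amino-terminally biotinylated PL peptides bind GST-PDZ fusions, and retained peptide is quantified by 450 nm absorbance.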

[2] = molecular target: T2, PDZ protein (GST-PDZ fusion) (Homo sapiens, UniProt Q86UL8)
T2 construct: made in house; host or cells: E. coli (DH5alpha, BL21 or JM109)
In short: as §1

[3] = molecular target: T3, PDZ protein (GST-PDZ fusion) (Homo sapiens, UniProt O75970)
T3 construct: made in house; host or cells: E. coli (DH5alpha, BL21 or JM109)
T3 sequence (O75970 whole entry, the tested form may be a part): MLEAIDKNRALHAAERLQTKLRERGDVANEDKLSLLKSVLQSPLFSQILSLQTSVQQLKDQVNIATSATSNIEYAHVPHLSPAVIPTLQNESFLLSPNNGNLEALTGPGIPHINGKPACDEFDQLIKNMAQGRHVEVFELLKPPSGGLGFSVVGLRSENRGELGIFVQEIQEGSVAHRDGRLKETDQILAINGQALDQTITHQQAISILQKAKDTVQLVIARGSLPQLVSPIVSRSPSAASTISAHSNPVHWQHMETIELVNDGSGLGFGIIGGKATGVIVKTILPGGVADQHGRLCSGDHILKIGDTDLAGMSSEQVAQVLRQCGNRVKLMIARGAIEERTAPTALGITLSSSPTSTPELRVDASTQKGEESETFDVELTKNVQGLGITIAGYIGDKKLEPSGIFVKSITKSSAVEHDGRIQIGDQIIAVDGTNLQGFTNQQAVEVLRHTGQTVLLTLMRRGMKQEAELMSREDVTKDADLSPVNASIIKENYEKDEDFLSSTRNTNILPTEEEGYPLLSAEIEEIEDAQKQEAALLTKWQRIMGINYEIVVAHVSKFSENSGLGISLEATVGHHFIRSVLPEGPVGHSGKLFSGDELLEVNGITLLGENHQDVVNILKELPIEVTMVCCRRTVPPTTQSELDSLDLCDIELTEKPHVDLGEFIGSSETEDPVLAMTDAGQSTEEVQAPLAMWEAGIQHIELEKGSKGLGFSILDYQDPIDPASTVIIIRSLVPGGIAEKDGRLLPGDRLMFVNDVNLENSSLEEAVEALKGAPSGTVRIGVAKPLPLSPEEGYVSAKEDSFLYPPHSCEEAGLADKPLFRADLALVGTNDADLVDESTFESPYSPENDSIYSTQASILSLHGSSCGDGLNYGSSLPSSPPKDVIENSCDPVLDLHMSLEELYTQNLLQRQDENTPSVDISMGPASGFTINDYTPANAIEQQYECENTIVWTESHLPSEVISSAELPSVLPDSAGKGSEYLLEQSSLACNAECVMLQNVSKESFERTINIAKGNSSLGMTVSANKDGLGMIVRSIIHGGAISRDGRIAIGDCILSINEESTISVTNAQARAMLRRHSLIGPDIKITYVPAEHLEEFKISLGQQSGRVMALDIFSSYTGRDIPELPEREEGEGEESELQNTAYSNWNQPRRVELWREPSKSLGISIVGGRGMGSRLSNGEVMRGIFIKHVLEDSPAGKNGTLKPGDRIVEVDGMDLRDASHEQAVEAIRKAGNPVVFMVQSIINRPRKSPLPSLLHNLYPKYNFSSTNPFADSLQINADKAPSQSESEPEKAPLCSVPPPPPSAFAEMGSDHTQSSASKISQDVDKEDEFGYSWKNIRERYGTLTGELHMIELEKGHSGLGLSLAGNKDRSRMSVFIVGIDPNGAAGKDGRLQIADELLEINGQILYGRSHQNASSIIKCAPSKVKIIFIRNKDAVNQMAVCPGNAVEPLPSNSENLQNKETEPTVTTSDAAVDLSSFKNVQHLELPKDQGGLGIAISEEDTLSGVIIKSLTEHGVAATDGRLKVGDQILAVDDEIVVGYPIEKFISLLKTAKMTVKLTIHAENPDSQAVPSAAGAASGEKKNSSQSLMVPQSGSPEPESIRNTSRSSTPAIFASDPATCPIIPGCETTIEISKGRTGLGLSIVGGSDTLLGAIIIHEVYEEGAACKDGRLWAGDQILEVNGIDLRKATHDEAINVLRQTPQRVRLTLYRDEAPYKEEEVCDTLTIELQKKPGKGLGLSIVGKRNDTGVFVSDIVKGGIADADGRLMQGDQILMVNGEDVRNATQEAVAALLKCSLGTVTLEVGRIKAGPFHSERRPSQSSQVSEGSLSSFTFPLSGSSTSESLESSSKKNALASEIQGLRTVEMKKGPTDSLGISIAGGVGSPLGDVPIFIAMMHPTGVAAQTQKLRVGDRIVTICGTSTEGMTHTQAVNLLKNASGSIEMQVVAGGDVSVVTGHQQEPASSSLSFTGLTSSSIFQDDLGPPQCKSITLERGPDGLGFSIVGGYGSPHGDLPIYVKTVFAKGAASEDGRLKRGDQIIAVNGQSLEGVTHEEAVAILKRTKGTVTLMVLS
In short: as §1

[4] = PDZ Atrophin-1 Inter. Prot., PDZ Domain 5

Compound: CC[C@H](C)[C@H](NC(=O)[C@H](CCC(=O)O)NC(=O)[C@H](CC(N)=O)NC(=O)[C@H](CCCNC(=N)N)NC(=O)[C@H](Cc1ccccc1)NC(=O)[C@H](CC(N)=O)NC(=O)[C@H](CO)NC(=O)[C@H](CC(N)=O)NC(=O)[C@H](CCC(=O)O)NC(=O)[C@H](CO)NC(=O)[C@H](CC(=O)O)NC(=O)[C@H](CO)NC(=O)[C@@H](NC(=O)[C@@H](NC(=O)[C@H](CC(=O)O)NC(=O)[C@H](CCCCN)NC(=O)CCCC[C@@H]1SC[C@@H]2NC(=O)N[C@@H]21)[C@@H](C)CC)[C@@H](C)O)C(=O)N[C@@H](CCC(N)=O)C(=O)N[C@@H](CO)C(=O)N[C@@H](CC(C)C)C(=O)N[C@H](C(=O)O)C(C)C [CD95] (Biotin-KDITSDSENSNFRNEIQSLV-OH; C-terminus assumed)
- Classification ([1]; PDZ PTPL-1, PDZ Domain 2): 3 (A450 nm 2-3)
- Classification ([1]; PDZ PTPL-1, PDZ Domain 4): 1 (A450 nm 0-1)

Compound: ELLQFCRTPNPALKNGQYWV (Biotin-ELLQFCRTPNPALKNGQYWV)
- Classification [2, 4]: 2 (A450 nm 1-2)
- Classification ([2]; PDZ atrophin-1 interacting Protein, PDZ Domain 1): 1 (A450 nm 0-1)
- Classification ([2]; PDZ atrophin-1 interacting Protein, PDZ Domain 3): 2 (A450 nm 1-2)
- Classification ([1]; PDZ PTPL-1, PDZ Domain 4): 5 (A450 nm of 4 more than 2× repeated)
- Classification ([3]; PDZ MUPP-1, PDZ Domain 1): 2 (A450 nm 1-2)
- Classification ([3]; PDZ MUPP-1, PDZ Domain 2): 5 (A450 nm of 4 more than 2× repeated)
- Classification ([3]; PDZ MUPP-1, PDZ Domain 5): 5 (A450 nm of 4 more than 2× repeated)
- Classification ([3]; PDZ MUPP-1, PDZ Domain 8): 2 (A450 nm 1-2)
- Classification ([3]; PDZ MUPP-1, PDZ Domain 10): 4 (A450 nm 3-4)
- Classification ([3]; PDZ MUPP-1, PDZ Domain 11): 5 (A450 nm of 4 more than 2× repeated)
- Classification ([3]; PDZ MUPP-1, PDZ Domain 12): 1 (A450 nm 0-1)

Compound: CC[C@H](C)[C@H](NC(=O)[C@H](CO)NC(=O)[C@H](CCC(=O)O)NC(=O)[C@H](Cc1ccc(O)cc1)NC(=O)[C@H](CC(=O)O)NC(=O)[C@H](CC(N)=O)NC(=O)[C@H](CCC(=O)O)NC(=O)[C@H](CCCCN)NC(=O)CCCC[C@@H]1SC[C@@H]2NC(=O)N[C@@H]21)C(=O)N[C@@H](CO)C(=O)N[C@@H](CC(=O)O)C(=O)N[C@@H](CC(C)C)C(=O)N[C@@H](CCC(N)=O)C(=O)N[C@@H](CCC(N)=O)C(=O)NCC(=O)N[C@@H](CCCNC(=N)N)C(=O)N[C@@H](CC(=O)O)C(=O)N[C@H](C(=O)N[C@H](C(=O)N[C@@H](CCCNC(=N)N)C(=O)N[C@@H](CC(C)C)C(=O)O)[C@@H](C)O)[C@@H](C)CC [PAG] (Biotin-KENDYESISDLQQGRDITRL-OH; C-terminus assumed)
- Classification [2, 4]: 1 (A450 nm 0-1)

Compound: CC[C@H](C)[C@H](NC(=O)[C@H](C)NC(=O)[C@H](CC(C)C)NC(=O)[C@H](Cc1c[nH]c2ccccc12)NC(=O)[C@H](Cc1c[nH]cn1)NC(=O)[C@H](CCC(N)=O)NC(=O)[C@H](CC(C)C)NC(=O)[C@H](CCC(N)=O)NC(=O)[C@H](Cc1ccccc1)NC(=O)[C@H](CCC(N)=O)NC(=O)[C@H](CCCNC(=N)N)NC(=O)[C@@H](NC(=O)[C@H](CC(=O)O)NC(=O)[C@H](CCCNC(=N)N)NC(=O)[C@H](CCC(N)=O)NC(=O)[C@H](C)NC(=O)[C@@H](NC(=O)[C@H](CC(C)C)NC(=O)[C@H](Cc1c[nH]cn1)NC(=O)[C@H](Cc1c[nH]cn1)NC(=O)CCCC[C@@H]1SC[C@@H]2NC(=O)N[C@@H]21)C(C)C)[C@@H](C)CC)C(=O)O [noradrenaline transporter] (Biotin-HHLVAQRDIRQFQLQHWLAI-OH; C-terminus assumed)
- Classification ([3]; PDZ MUPP-1, PDZ Domain 3): 4 (A450 nm 3-4)
- Classification ([3]; PDZ MUPP-1, PDZ Domain 7): 3 (A450 nm 2-3)
- Classification ([3]; PDZ MUPP-1, PDZ Domain 9): 3 (A450 nm 2-3)

Compound: CC[C@H](C)[C@H](NC(=O)[C@H](Cc1ccc(O)cc1)NC(=O)[C@H](CC(C)C)NC(=O)[C@H](CCC(N)=O)NC(=O)[C@H](Cc1c[nH]cn1)NC(=O)[C@H](CO)NC(=O)[C@H](C)NC(=O)[C@H](CC(C)C)NC(=O)[C@@H](NC(=O)[C@H](CC(=O)O)NC(=O)[C@H](CCSC)NC(=O)[C@H](Cc1ccccc1)NC(=O)[C@@H]1CCCN1C(=O)[C@H](CCCNC(=N)N)NC(=O)[C@@H](NC(=O)[C@H](CC(C)C)NC(=O)[C@H](CC(N)=O)NC(=O)[C@H](CC(=O)O)NC(=O)[C@@H](NC(=O)[C@H](CO)NC(=O)CCCC[C@@H]1SC[C@@H]2NC(=O)N[C@@H]21)[C@@H](C)O)C(C)C)[C@@H](C)O)C(=O)O [presenilin-2] (Biotin-STDNLVRPFMDTLASHQLYI-OH; C-terminus assumed)
- Classification [2, 4]: 1 (A450 nm 0-1)
- Classification ([1]; PDZ PTPL-1, PDZ Domain 4): 2 (A450 nm 1-2)
- Classification ([3]; PDZ MUPP-1, PDZ Domain 3): 3 (A450 nm 2-3)
- Classification ([3]; PDZ MUPP-1, PDZ Domain 7): 2 (A450 nm 1-2)
- Classification ([3]; PDZ MUPP-1, PDZ Domain 9): 3 (A450 nm 2-3)

Compound: CC(C)C[C@H](NC(=O)[C@H](Cc1c[nH]c2ccccc12)NC(=O)[C@H](Cc1c[nH]cn1)NC(=O)[C@H](CCCNC(=N)N)NC(=O)[C@H](CC(C)C)NC(=O)[C@@H](NC(=O)[C@H](Cc1ccccc1)NC(=O)[C@H](CCC(N)=O)NC(=O)[C@H](CCCNC(=N)N)NC(=O)[C@@H](NC(=O)[C@H](CCC(=O)O)NC(=O)CNC(=O)[C@H](CCCNC(=N)N)NC(=O)[C@H](CC(=O)O)NC(=O)[C@@H](NC(=O)[C@H](CC(C)C)NC(=O)[C@H](CCC(=O)O)NC(=O)[C@H](CCCNC(=N)N)NC(=O)CCCC[C@@H]1SC[C@@H]2NC(=O)N[C@@H]21)C(C)C)C(C)C)[C@@H](C)O)C(=O)N[C@@H](CCCCN)C(=O)N[C@H](C(=O)O)C(C)C [Dopamine transporter (Na+-dependent)] (Biotin-RELVDRGEVRQFTLRHWLKV-OH; C-terminus assumed)
- Classification ([1]; PDZ PTPL-1, PDZ Domain 4): 3 (A450 nm 2-3)

Compound: CC[C@H](C)[C@H](NC(=O)[C@H](Cc1ccc(O)cc1)NC(=O)[C@@H](NC(=O)[C@@H]1CCCN1C(=O)[C@H](CCC(N)=O)NC(=O)[C@H](CCC(=O)O)NC(=O)[C@H](CCC(N)=O)NC(=O)[C@H](C)NC(=O)[C@@H](NC(=O)[C@H](CC(C)C)NC(=O)[C@H](CC(C)C)NC(=O)[C@H](CCCNC(=N)N)NC(=O)[C@H](Cc1ccc(O)cc1)NC(=O)[C@H](CCSC)NC(=O)[C@H](C)NC(=O)[C@H](C)NC(=O)[C@@H]1CCCN1C(=O)[C@H](CCSC)NC(=O)[C@@H](NC(=O)[C@H](CCCCN)NC(=O)CCCC[C@@H]1SC[C@@H]2NC(=O)N[C@@H]21)[C@@H](C)O)[C@@H](C)O)C(C)C)C(=O)O [MINT-1] (Biotin-KTMPAAMYRLLTAQEQPVYI-OH; C-terminus assumed)
- Classification ([1]; PDZ PTPL-1, PDZ Domain 4): 5 (A450 nm of 4 more than 2× repeated)
- Classification ([3]; PDZ MUPP-1, PDZ Domain 1): 1 (A450 nm 0-1)
- Classification ([3]; PDZ MUPP-1, PDZ Domain 2): 1 (A450 nm 0-1)
- Classification ([3]; PDZ MUPP-1, PDZ Domain 3): 3 (A450 nm 2-3)
- Classification ([3]; PDZ MUPP-1, PDZ Domain 5): 2 (A450 nm 1-2)
- Classification ([3]; PDZ MUPP-1, PDZ Domain 7): 3 (A450 nm 2-3)
- Classification ([3]; PDZ MUPP-1, PDZ Domain 9): 3 (A450 nm 2-3)
- Classification ([3]; PDZ MUPP-1, PDZ Domain 10): 1 (A450 nm 0-1)
- Classification ([3]; PDZ MUPP-1, PDZ Domain 11): 5 (A450 nm of 4 more than 2× repeated)

Compound: KTMPAATYRLLTGQEQPVYL (Biotin-KTMPAATYRLLTGQEQPVYL) [MINT-3]
- Classification ([3]; PDZ MUPP-1, PDZ Domain 3): 1 (A450 nm 0-1)
- Classification ([3]; PDZ MUPP-1, PDZ Domain 11): 2 (A450 nm 1-2)
